From patent publication US7053107B2, “Indazole compounds and pharmaceutical compositions for inhibiting protein kinases, and methods for their use” (Agouron Pharmaceuticals, Inc., priority 2002, dated 2006)
Like-named read-outs stand apart in the source and are kept apart here.

Assays:
Mouse PK Assay = type: in vivo; conditions: female, B6, plasma
Protocol: The pharmacokinetics (e.g., absorption and elimination) of drugs in mice were analyzed using the following experiment. Test compounds were formulated as a solution or suspension in a 30:70 (PEG 400: acidified H2O) vehicle or as a suspension in 0.5% CMC. This was administered orally (p.o.) and intraperitoneally (i.p.) at variable doses to two distinct groups (n=4) of B6 female mice. Blood samples were collected via an orbital bleed at time points: 0 hour (pre-dose), 0.5 h, 1.0 h, 2.0 h, and 4.0 h, and 7.0 h post dose. Plasma was obtained from each sample by centrifugation at 2500 rpm for 5 min. Test compound was extracted from the plasma by an organic protein precipitation method. For each time bleed 50 μL of plasma was combined with 1.0 mL of acetonitrile, vortexed for 2 min. and then spun at 4000 rpm for 15 min. to precipitate the protein and extract out the test compound. […] Test-compound plasma concentrations (μg/mL) were determined by a comparison to standard curve (peak area vs. conc. μg/mL) using known concentrations of test compound extracted from plasma samples in the manner described above. […] The quantitated test samples were plotted for visual display using Kalidagraph software and their pharmacokinetic parameters were determined using WIN NONLIN software. […]

[1] = test system: human umbilical vein endothelial cells (HUVEC); test: HUVEC Proliferation Assay (VEGF-stimulated); type: cell-based
Protocol: (§1) This assay determines the ability of a test compound to inhibit the growth factor-stimulated proliferation of human umbilical vein endothelial cells (“HUVEC”). HUVEC cells (passage 3–4, Clonetics, Corp.) were thawed into EGM2 culture medium (Clonetics Corp) in T75 flasks. Fresh EGM2 medium was added to the flasks 24 hours later. Four or five days later, cells were exposed to another culture medium (F12K medium supplemented with 10% fetal bovine serum (FBS), 60 μg/mL endothelial cell growth supplement (ECGS), and 0.1 mg/mL heparin). Exponentially-growing HUVEC cells were used in experiments thereafter. Ten to twelve thousand HUVEC cells were plated in 96-well dishes in 100 μl of rich, culture medium (described above). The cells were allowed to attach for 24 hours in this medium. The medium was then removed by aspiration and 105 μl of starvation media (F12K+1% FBS) was added to each well. After 24 hours, 15 μl of test agent dissolved in 1% DMSO in starvation medium or this vehicle alone was added into each treatment well; the final DMSO concentration was 0.1%. One hour later, 30 μl of VEGF (30 ng/mL) in starvation media was added to all wells except those containing untreated controls; the final VEGF concentration was 6 ng/mL. Cellular proliferation was quantified 72 hours later by MTT dye reduction, at which time cells were exposed for 4 hours MTT (Promega Corp.). Dye reduction was stopped by addition of a stop solution (Promega Corp.) and absorbance at 595λ was determined on a 96-well spectrophotometer plate reader.
(§2) IC50 values were calculated by curve-fitting the response of A^595 to various concentrations of the test agent; typically, seven concentrations separated by 0.5 log were employed, with triplicate wells at each concentration. For screening compound library plates, one or two concentrations (one well per concentration) were employed, and the % inhibition was calculated by the following formula: % inhibition=(control−test)[…](control−starvation) where
control=A^595 when VEGF is present without test agent
test=A^595 when VEGF is present with test agent
starvation=A^595 when VEGF and test agent are both absent.

FGF-R1 = target: T1, FGF-R1 (Homo sapiens, UniProt P11362, C488A/C584S/L457V); test: Fibroblast Growth Factor (FGF-R) spectrophotometric assay; type: biochemical; conditions: 1 μM compound; read-out: FGF-P % inhibit @1 μM
T1 construct: starting from the endogenous methionine residue 456 to glutamate 766; made in house; host or cells: baculovirus vector expression system
Text: The intracellular kinase domain of human FGF-R1 was expressed using the baculovirus vector expression system starting from the endogenous methionine residue 456 to glutamate 766, according to the residue numbering system of Mohammadi et al., Mol. Cell. Biol., 16, 977–989 (1996). In addition, the construct also has the following 3 amino acid substitutions: L457V, C488A, and C584S.
(§3) The production of ADP from ATP that accompanies phosphoryl transfer was coupled to oxidation of NADH using phosphoenolpyruvate (PEP) and a system having pyruvate kinase (PK) and lactic dehydrogenase (LDH). The oxidation of NADH was monitored by following the decrease of absorbance at 340 nm (e340=6.22 cm^−1 mM^−1) using a Beckman DU 650 spectrophotometer. Assay conditions for phosphorylated VEGF-R2A50 (indicated as FLVK-P in the tables below) were the following: 1 mM PEP; 250 μM NADH; 50 units of LDH/mL; 20 units of PK/mL; 5 mM DTT; 5.1 mM poly(E4Y1); 1 mM ATP; and 25 mM MgCl2 in 200 mM HEPES, pH 7.5. Assay conditions for unphosphorylated VEGF-R2Δ50 (indicated as FLVK in the tables) were the following: 1 mM PEP; 250 μM NADH; 50 units of LDH/mL; 20 units of PK/mL; 5 mM DTT; […]; 3 mM ATP; and 60 mM MgCl2 and 2 mM MnCl2 in 200 mM HEPES, pH 7.5. Assays were initiated with 5 to 40 nM of enzyme. Ki values were determined by measuring enzyme activity in the presence of varying concentrations of test compounds. The data were analyzed using Enzyme Kinetic and Kaleidagraph software.
The spectrophotometric assay was carried out as described above for VEGF-R2, except for the following changes in concentration: FGF-R=50 nM, ATP=2 mM, and poly(E4Y1)=15 mM.

LCK = target: T2, LCK (Homo sapiens, UniProt P06239, C224D/P223M); test: Lymphocyte-Specific Protein-Tyrosine Kinase (LCK) spectrophotometric assay; type: biochemical; conditions: 1 μM compound; read-out: LckP* % inhibit @1 μM
T2 construct: starting from amino acid residue 223 to the end of the protein at residue 509; made in house; host or cells: insect cells

[2] = target: T3, unphosphorylated VEGF-R2Δ50 (Homo sapiens, UniProt P35968, DEL940-989/E990V); test: VEGF-R2 coupled spectrophotometric assay, unphosphorylated construct (FLVK); type: biochemical; conditions: % inhibition at 50 nM compound; read-out: FLVK Ki % inh @ 50 nM
T3 construct: VEGF-R2Δ50 contains residues 806–939 and 990–1171; made in house; host or cells: baculovirus/insect cell system
Text: This construct determines the ability of a test compound to inhibit tyrosine kinase activity. A construct (VEGF-R2Δ50) of the cytosolic domain of human vascular endothelial growth factor receptor 2 (VEGF-R2) lacking the 50 central residues of the 68 residues of the kinase insert domain was expressed in a baculovirus/insect cell system. Of the 1356 residues of full-length VEGF-R2, VEGF-R2Δ50 contains residues 806–939 and 990–1171, and also one point mutation (E99OV) within the kinase insert domain relative to wild-type VEGF-R2. Autophosphorylation of the purified construct was performed by incubation of the enzyme at a concentration of 4 μM in the presence of 3 mM ATP and 40 mM MgCl2 in 100 mM HEPES, pH 7.5, containing 5% glycerol and 5 mM DTT, at 4° C. for 2 h. […] See Parast et al., Biochemistry, 37,16788–16801 (1998).
as §3

[3] = Human Liver Microsome (HLM) Assay; type: in vitro ADME; conditions: @0.5 h
Protocol: Compound metabolism in human liver microsomes was measured by LC-MS analytical assay procedures as follows. First, human liver microsomes (HLM) were thawed and diluted to 5 mg/mL with cold 100 mM potassium phosphate (KPO4) buffer. Appropriate amounts of KPO4 buffer, NADPH-regenerating solution (containing B-NADP, glucose-6-phosphate, glucose-6-phosphate dehydrogenase, and MgCl2), and HLM were preincubated in 13×100 mm glass tubes at 37 C. for 10 min. (3 tubes per test compound—triplicate). Test compound (5 µM final) was added to each tube to initiate reaction and was mixed by gentle vortexing, followed by incubation at 37° C. […] Samples were centrifuged at 4000 rpm for 20 min. to precipitate proteins and salt (Beckman Allegra 6KR, S/N ALK98DO6, #634). Supernatant was transferred to new 12×75 mm glass tubes and evaporated by Speed-Vac centrifugal vacuum evaporator. Samples were reconstituted in 200 μL 0.1% formic acid/acetonitrile (90/10) and vortexed vigorously to dissolve. The samples were then transferred to separate polypropylene microcentrifuge tubes and centrifuged at 14000×g for 10 min. (Fisher Micro 14, S/N M0017580). […]
The combined compound samples were injected into the LC-MS system, composed of a Hewlett-Packard HP 1100 diode array HPLC and a Micromass Quattro II triple quadruple mass spectrometer operating in positive electrospray SIR mode (programmed to scan specifically for the molecular ion of each test compound. Each test compound peak was integrated at each timepoint. […]

HUVEC = HUVEC + albumin proliferation; type: cell-based; conditions: Homo sapiens, 72 h, with albumin
Protocol: as §1, §2

PDGFRβ = target: T4, PDGFRβ (Homo sapiens, UniProt P09619); test: PAE-PDGFRβ Phosphorylation in PAE-PDGFRB Cells Assay; type: cell-based; conditions: PAE cells overexpressing human PDGFRβ; read-out: PAE PDGFR autophos IC50
T4 construct: expressed in transfected cells; host or cells: porcine aorta endothelial (PAE) cells
Protocol: This assay determines the ability of a test compound to inhibit the autophosphorylation of PDGFRβ in porcine aorta endothelial (PAE)-PDGFRβ cells. PAE cells that overexpress human PDGFRβ were used in this assay. The cells were cultured in Ham's F12 media supplemented with 10% fetal bovine serum (FBS) and 400 ug/ml G418. Twenty thousands cells were seeded in each well of a 96-well plate in 50 μL of growth media and allowed to attach for 6 hours at 37° C. Cells were then exposed to the starvation media (Ham's F12 media supplemented with 0.1% FBS) for 16 hours. After the starvation period was over, 10 μL of test agent in 5% DMSO in starvation media were added to the test wells and 10 μL of the vehicle (5% DMSO in starvation media) were added into the control wells. The final DMSO concentration in each well was 0.5%. Plates were incubated at 37° C. for 1 hour and the cells were then stimulated with 1 μg/mL PDGF-BB (R & D System) in the presence of 2 mM Na3VO4 for 8 minutes. The cells were washed once with 1 mm Na3VO4 in HBSS and lysed by adding 50 μL per well of lysis buffer. One hundred μL of dilution buffer were then added to each well and the diluted cell lysate was transferred to a 96-well goat ant-rabbit coated plate (Pierce), which was pre-coated with Rabbit anti Human PDGFRβ antibody (Santa Cruz). The plates were incubated at room temperature for 2 hours and washed seven times with 1% Tween 20 in PBS. HRP-PY20 (Santa Cruz) was diluted and added to the plate for a 30-minute incubation. Plates were then washed again and TMB peroxidase substrate (Kirkegaard & Perry) was added for a 10-minute incubation. One hundred μL of 0.09 N H2SO4 was added into each well of the 96-well plate to stop the reaction. Phosphorylation status was assessed by spectrophotometer reading at 450 nm. IC50 values were calculated by curve fitting using a four-parameter analysis.

T3 sequence (P35968 with tags, fused parts or gaps DEL940-989/E990V limits assumed): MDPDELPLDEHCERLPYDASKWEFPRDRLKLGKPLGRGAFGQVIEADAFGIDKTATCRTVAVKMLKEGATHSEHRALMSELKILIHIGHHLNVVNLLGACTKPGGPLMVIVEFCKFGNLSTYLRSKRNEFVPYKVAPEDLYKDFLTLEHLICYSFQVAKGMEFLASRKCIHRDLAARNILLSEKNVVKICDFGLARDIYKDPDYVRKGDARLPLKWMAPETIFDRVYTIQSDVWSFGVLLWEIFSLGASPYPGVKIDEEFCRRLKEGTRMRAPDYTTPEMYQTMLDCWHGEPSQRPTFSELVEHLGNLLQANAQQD
T2 sequence (P06239 223-509 P223M/C224D): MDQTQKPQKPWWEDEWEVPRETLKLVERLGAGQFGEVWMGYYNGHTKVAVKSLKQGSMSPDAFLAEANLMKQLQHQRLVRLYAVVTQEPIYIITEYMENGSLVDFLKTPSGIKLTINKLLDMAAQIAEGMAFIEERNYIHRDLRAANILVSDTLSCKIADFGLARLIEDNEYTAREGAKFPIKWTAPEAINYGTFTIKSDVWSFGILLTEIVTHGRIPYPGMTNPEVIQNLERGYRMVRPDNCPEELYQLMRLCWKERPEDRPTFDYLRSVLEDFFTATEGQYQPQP
T1 sequence (P11362 456-766 L457V/C488A/C584S): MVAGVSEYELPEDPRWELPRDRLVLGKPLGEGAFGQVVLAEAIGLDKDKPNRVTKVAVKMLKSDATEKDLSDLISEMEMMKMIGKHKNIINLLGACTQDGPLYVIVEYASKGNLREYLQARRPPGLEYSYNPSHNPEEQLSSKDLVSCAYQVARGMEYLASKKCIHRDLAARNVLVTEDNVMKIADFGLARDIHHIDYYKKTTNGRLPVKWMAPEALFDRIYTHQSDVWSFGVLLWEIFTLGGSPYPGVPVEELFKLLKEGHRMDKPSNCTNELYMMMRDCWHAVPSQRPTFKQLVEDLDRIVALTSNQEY
T4 sequence (P09619 33-1106): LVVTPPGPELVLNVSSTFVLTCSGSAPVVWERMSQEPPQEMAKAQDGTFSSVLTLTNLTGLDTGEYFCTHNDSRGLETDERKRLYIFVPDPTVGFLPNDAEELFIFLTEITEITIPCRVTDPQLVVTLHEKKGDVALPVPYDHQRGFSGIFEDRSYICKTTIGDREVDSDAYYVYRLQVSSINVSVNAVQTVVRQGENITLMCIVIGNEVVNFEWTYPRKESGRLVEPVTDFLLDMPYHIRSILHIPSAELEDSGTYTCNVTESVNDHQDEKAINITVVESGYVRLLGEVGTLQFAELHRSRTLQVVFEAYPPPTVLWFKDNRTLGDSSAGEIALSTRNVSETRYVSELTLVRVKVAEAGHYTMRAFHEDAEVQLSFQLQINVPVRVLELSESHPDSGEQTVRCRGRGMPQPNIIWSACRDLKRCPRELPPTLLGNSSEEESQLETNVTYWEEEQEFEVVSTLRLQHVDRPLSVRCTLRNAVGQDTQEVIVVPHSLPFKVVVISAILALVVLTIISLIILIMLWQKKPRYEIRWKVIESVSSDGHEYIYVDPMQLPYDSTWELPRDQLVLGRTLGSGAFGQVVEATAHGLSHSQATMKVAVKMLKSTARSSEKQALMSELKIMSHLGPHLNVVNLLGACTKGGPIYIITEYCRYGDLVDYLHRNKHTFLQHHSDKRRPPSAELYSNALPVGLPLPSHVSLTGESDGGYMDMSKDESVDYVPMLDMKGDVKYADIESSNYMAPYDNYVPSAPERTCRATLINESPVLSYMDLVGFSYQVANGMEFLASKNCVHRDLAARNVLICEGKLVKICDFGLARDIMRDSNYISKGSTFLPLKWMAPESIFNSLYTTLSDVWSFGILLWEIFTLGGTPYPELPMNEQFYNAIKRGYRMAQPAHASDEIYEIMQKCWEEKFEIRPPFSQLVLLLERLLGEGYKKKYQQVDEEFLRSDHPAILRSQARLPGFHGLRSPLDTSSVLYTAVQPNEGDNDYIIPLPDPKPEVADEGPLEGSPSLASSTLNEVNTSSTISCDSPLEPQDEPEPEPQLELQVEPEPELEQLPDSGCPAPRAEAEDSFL

SMILES | AUC (Mouse PK Assay; ip, intraperitoneal, read-out: Mouse pK, AUC, ip) | AUC (Mouse PK Assay; oral, read-out: Mouse pK, AUC, po) | IC50 [1] | inhibition at 1 µM (FGF-R1) | inhibition at 1 µM (LCK) | inhibition at 0.05 µM [2] | % remaining (HLM) [3] | IC50 (HUVEC) | IC50 (PDGFRβ)
COC(=O)C(C(=O)OC)c1ccc(Cl)cc1[N+](=O)[O-] [Example 1(a), 2-(4-Chloro-2-nitro-phenyl)-malonic acid dimethyl ester] | 690 ng·h/mL | 330 ng·h/mL |  |  |  |  |  |  | 
CC(C)ONC(=O)c1ccccc1Nc1ccc2c(/C=C/c3ccccn3)n[nH]c2c1 [Example 3(c), N-Isopropoxy-2-[3-((E)-2-pyridin-2-yl-vinyl)-1H-indazol-6-ylamino]-benzamide] |  |  | 0.43 nM | 83% | 9% | 91% | 46@0.5 h % | 9.2 nM | 
Cn1cccc1C(=O)NNC(=O)c1ccccc1Nc1ccc2c(/C=C/c3ccccn3)n[nH]c2c1 [Example 3(f)] |  |  |  | 60% | 41% | 95% |  | > 100 nM | 
Cc1ccnc(/C=C/c2n[nH]c3cc(Nc4ccccc4C(=O)NCc4ccncc4)ccc23)c1 [Example 38, 2-{3-[2-(4-Methyl-pyridin-2-yl)-vinyl]-1H-indazol6-ylamino}-N-pyridin-4-ylmethyl-benzamide] |  |  |  |  |  | 75% |  | 0.68 nM | 2 nM
